Reference: patent US6753005B1, “Method for tissue perfusion” (Direct Therapeutics, Inc., priority 1997, dated 2004)
Entries after “also recorded” stand apart in the source; their conditions may differ.

Tested on: normal feline brain
Experiment: Normal feline brain model, direct intra-tissue injection
Settings: for Gross Findings: lesion size: 2 weeks
Description: Mongrel cats weighing 2.5-3.0 kg were obtained from Liberty Research, Waverly, N.Y. Animals were anaesthetized using intramuscular acepromazine at 0.1 mg/kg, followed by 0-30 mg total dose of ketamine. A small incision was made over and extending posteriorly from the coronal suture. A 3 mm burr hole was made 0.75 cm posterior to the coronal suture and 0.75 cm lateral to the midline. Using a stereotactic frame, solutions were injected at a depth of 0.75 cm in the area of the sensory cortex. The burr hole was closed with bone wax and the skin closed with a skin clip. Doses of carmustine between 5 and 20 mg were administered in dehydrated alcohol volumes of between 0.05-0.4 ml. Two weeks post injection animals were sacrificed, the brain removed in toto and fixed in 10% buffered formalin and the brain examined grossly for lesions at the site of injection. Solutions injected consisted of an ethanol solvent vehicle alone, or containing varying concentrations of carmustine.

[1] = 0.05 ml ethanol + 5 mg carmustine (100 mg/ml), 1 cat
[2] = 0.05 ml ethanol + 20 mg carmustine (400 mg/ml), 1 cat
[3] = 0.1 ml ethanol + 10 mg carmustine (100 mg/ml), 1 cat
[4] = 0.2 ml ethanol + 5 mg carmustine (25 mg/ml), 1 cat
[5] = 0.4 ml ethanol + 5 mg carmustine (12.5 mg/ml), 1 cat

With `O=NN(CCCl)C(=O)NCCCl` [Carmustine, carmustine] the “Clinical Signs” value [1] was “NPND”, the “Gross Findings: lesion size” value [1] was 2-3 mm and the Survival (0.05 ml ethanol + 5 mg carmustine (100 mg/ml), 1 cat, sacrifice 2 weeks) was “Term”. The “Clinical Signs” value (0.05 ml ethanol + 10 mg carmustine (200 mg/ml), 1 cat) was “Circles to left, otherwise”, the Survival (0.05 ml ethanol + 10 mg carmustine (200 mg/ml), 1 cat, sacrifice 2 weeks) was “Term” and the “Clinical Signs” value [2] was “Died”. For the same compound, the “Gross Findings: lesion size (diameter)” value [2] was 1-1.5 cm, the Survival [2] was 3 days and the volume of lesion (0.05 ml ethanol containing 20 mg (400 mg/ml) carmustine) was 1.0 to 1.77 mL. For the same compound, the volume of lesions (0.05 ml ethanol containing 10 and 20 mg (200 and 400 mg/ml) carmustine) was 1.0 to 1.77 mL, the “Clinical Signs” value [3] was “NPND” and the “Gross Findings: lesion size” value [3] was 4-5 mm. For the same compound, the Survival (0.1 ml ethanol + 10 mg carmustine (100 mg/ml), 1 cat, sacrifice 2 weeks) was “Term”, the “Clinical Signs” value [4] was “NPND” and the “Gross Findings: lesion size” value [4] was 4 mm. For the same compound, the Survival (0.2 ml ethanol + 5 mg carmustine (25 mg/ml), 1 cat, sacrifice 2 weeks) was “Term”, the “Clinical Signs” value [5] was “NPND” and the “Gross Findings: lesion size” value [5] was 2-3 mm. The Survival (0.4 ml ethanol + 5 mg carmustine (12.5 mg/ml), 1 cat, sacrifice 2 weeks) was “Term”, the “toxic effects on the tissue” value (0.4 ml ethanol containing 5 mg (12.5 mg/ml) carmustine) was “no toxic effects” and the “effect on post-mitotic (non-dividing) cells of normal brain” value (50 μl ethanol, carmustine 200 or 400 mg/ml) was “destruction of a relatively large volume of tissue; also recorded: novel activity of carmustine against non-dividing cells”. For the same compound, the “toxic effects in normal brain tissue” value (solutions containing carmustine up to 100 mg/ml) was “no toxic effects”.
